Assay results taken from patent publication US10233173B2, “Substituted 1,2,3-triazoles as NR2B-selective NMDA modulators” (JANSSEN PHARMACEUTICA NV, priority 2016, dated 2019).

These compounds were tested against human GluN1/GluN2B NMDA receptors (Homo sapiens, UniProt Q05586+Q13224) (assay: Cell-based calcium flux (FLIPR) assay on cloned human NR1/NR2B ion channels expressed in mammalian cells). Conditions: standard assay; glutamate at ~EC80; FLIPR calcium flux.
In short: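 Calcium influx followed by FLIPR fluorescence after 5 min compound exposure and a further 5 min co-agonist challenge: 10 μM glycine with glutamate at ~EC80 (standard) or EC40 (HTS).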

human GluN1/GluN2B NMDA receptors, sequence (Q13224 27-1484, other chains not shown): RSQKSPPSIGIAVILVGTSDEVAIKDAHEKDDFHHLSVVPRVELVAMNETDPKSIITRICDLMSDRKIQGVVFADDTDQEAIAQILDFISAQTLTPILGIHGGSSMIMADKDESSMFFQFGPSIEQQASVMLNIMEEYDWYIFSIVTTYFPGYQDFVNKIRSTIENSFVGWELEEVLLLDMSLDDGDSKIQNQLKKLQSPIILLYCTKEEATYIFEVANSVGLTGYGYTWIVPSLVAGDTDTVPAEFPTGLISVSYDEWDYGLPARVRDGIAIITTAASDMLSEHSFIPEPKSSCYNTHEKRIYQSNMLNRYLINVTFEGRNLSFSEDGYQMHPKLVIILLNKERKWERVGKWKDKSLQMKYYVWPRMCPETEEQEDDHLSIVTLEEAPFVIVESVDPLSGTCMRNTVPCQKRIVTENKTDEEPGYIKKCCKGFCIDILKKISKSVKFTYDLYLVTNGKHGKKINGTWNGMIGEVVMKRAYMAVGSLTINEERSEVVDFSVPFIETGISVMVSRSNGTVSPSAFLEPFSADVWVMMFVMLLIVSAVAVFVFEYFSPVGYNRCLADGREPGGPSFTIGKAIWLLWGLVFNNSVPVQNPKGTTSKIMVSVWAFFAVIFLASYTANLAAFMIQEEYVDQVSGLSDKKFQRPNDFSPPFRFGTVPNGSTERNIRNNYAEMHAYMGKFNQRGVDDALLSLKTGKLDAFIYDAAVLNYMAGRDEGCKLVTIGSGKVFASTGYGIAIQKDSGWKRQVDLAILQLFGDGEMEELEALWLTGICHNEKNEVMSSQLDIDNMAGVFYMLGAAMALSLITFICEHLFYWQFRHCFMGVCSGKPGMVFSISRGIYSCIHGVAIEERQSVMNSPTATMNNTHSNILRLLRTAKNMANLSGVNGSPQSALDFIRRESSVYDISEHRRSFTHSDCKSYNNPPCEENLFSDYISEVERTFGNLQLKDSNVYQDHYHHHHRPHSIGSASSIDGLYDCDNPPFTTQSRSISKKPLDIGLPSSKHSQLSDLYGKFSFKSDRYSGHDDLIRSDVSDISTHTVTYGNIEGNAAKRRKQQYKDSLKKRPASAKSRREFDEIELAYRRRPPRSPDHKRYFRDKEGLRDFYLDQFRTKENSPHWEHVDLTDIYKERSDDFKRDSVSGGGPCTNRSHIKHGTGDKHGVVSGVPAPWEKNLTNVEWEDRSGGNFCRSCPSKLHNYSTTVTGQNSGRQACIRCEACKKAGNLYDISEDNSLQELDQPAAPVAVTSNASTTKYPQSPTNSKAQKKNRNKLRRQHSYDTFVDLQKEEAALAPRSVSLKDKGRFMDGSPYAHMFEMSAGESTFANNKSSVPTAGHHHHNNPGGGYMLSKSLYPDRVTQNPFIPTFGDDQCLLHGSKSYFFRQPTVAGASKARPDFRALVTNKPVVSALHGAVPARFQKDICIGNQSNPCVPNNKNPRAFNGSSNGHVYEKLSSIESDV

Compound | IC50 [µM]
Fc1ccc(-n2cc(COc3nccc(NC4COC4)n3)nn2)cc1OC(F)F [Example 671, 2-((1-(3-(Difluoromethoxy)-4-fluorophenyl)-1H-1,2,3-triazol-4-yl)methoxy)-N-(oxetan-3-yl)pyrimidin-4-amine] | 0.126
Fc1ccc(-n2cc(COc3nccc(-c4ccc[nH]4)n3)nn2)cc1OC(F)F [Example 681, 2-((1-(3-(Difluoromethoxy)-4-fluorophenyl)-1H-1,2,3-triazol-4-yl)methoxy)-4-(1H-pyrrol-2-yl)pyrimidine] | 0.681
Fc1ccc(-n2cc(COc3nccc(NC4CC4)n3)nn2)cc1C(F)F [Example 690, N-Cyclopropyl-2-((1-(3-(difluoromethyl)-4-fluorophenyl)-1H-1,2,3-triazol-4-yl)methoxy)pyrimidin-4-amine] | 0.008
CCNc1ccnc(OCc2cn(-c3ccc(F)c(C(F)F)c3)nn2)n1 [Example 691, N-Ethyl-2-((1-(3-(difluoromethyl)-4-fluorophenyl)-1H-1,2,3-triazol-4-yl)methoxy)pyrimidin-4-amine] | 0.006
Cc1nccn1-c1ccnc(OCc2cn(-c3ccc(F)c(C(F)F)c3)nn2)n1 [Example 692, 2-((1-(3-(Difluoromethyl)-4-fluorophenyl)-1H-1,2,3-triazol-4-yl)methoxy)-4-(2-methyl-1H-imidazol-1-yl)pyrimidine] | 1.58
CC(F)(F)c1ccnc(OCc2cn(-c3ccc(F)c(C(F)F)c3)nn2)n1 [Example 696, 4(1,1-Difluoroethyl)-2-((1-(3-(difluoromethyl)-4-fluorophenyl)-1H-1,2,3-triazol-4-yl)methoxy)pyrimidine] | 0.958
Fc1ccc(-n2cc(COc3nccc(-n4cccn4)n3)nn2)cc1C(F)F [Example 699, 2-((1-(3-(Difluoromethyl)-4-fluorophenyl)-1H-1,2,3-triazol-4-yl)methoxy)-4-(1H-pyrazol-1-yl)pyrimidine] | 0.389
CC(F)(F)c1cnc(OCc2cn(-c3ccc(F)c(C(F)F)c3)nn2)nc1 [Example 701, 5-(1,1-Difluoroethyl)-2-((1-(3-(difluoromethyl)-4-fluorophenyl)-1H-1,2,3-triazol-4-yl)methoxy)pyrimidine] | 0.958
CCOCc1ccnc(OCc2cn(-c3ccc(F)c(OC(F)F)c3)nn2)n1 [Example 711, 2-((1-(3-(Difluoromethoxy)-4-fluorophenyl)-1H-1,2,3-triazol-4-yl)methoxy)-4-(ethoxymethyl)pyrimidine] | 0.043
Fc1ccc(-n2cc(COc3nccc(COCC(F)F)n3)nn2)cc1OC(F)F [Example 716, 4-((2,2-Difluoroethoxy)methyl)-2-((1-(3-(difluoromethoxy)-4-fluorophenyl)-1H-1,2,3-triazol-4-yl)methoxy)pyrimidine] | 0.049
